Assays:
Z. mobilis = assay: overproduction of proteins in Z. mobilis in response to autoinducer (identified by mass spectrometry); format: cell-based, Zymomonas mobilis; settings: AI-2 produced in vitro with purified enzymes; 2 cytoplasmic and 3 secreted proteins
Description: […] Nature 437, […]) to avoid the toxic effects of bacteriocin production, it stimulated Z. mobilis to overproduce at least 5 proteins, 2 which were retained in the cytoplasm and 3 that were secreted. These proteins were not produced when Z. mobilis was co-cultured with the luxS-deletion strain KX1128, which lacks the LuxS enzyme that is responsible for the synthesis of 4,5-dihydroxy-2,3-pentanedione (DPD) from S-ribosylhomocysteine, which spontaneously cyclizes to form the autoinducer molecule Autoinducer-2 (AI-2).
The proteins overproduced in response to AI-2 were identified by mass spectrometry sequencing of tryptic-fragments. The first of the secreted proteins, ZMO1147, was identified as a homologue of the E. coli periplasmic chaperone Skp/HIpA (Walton, T A and Sousa M C (2004) Crystal structure of Skp, a prefoldin-like chaperone that protects soluble and membrane proteins from aggregation. Mol Cell. 15, 367-74). […] In E.coli the yaeT and hlpA genes are clustered. In Z. mobilis, ZMO1147 is clearly transcriptionally linked to ZMO1148, a homologue of yaeT, being directly downstream of ZMO1148, so that they share the same promoter. Consequently, both ZMO1147 and ZMO1148 must be induced by AI-2. […] Clearly, ZMO1147 must have a role above and beyond acting as a periplasmic chaperone. […]

Z. mobilis cells = assay: chromate assay for ethanol production by untreated and AI-2-treated Z. mobilis cells; format: cell-based, Zymomonas mobilis
Description: The two overproduced cytosolic proteins were identified as enolase, ZMO1608, and pyruvate decarboxylase, ZMO1360 as illustrated in FIG. 2. These are sequential enzymes in the E-D pathway that leads to ethanol production. […] A chromate assay (e.g. 3C2H5OH+4Cr03−>2Cr2O3+3H2O) was used to asses ethanol production, monitoring colour change (e.g. at 600 nm) to determine the ethanol produced.

Q: What does the source list for Autoinducer-2 [AI-2]?
A: protein overproduction in Z. mobilis (in words) (Z. mobilis): over production of the same five proteins; medium ethanol concentration (Z. mobilis cells; AI-2-treated Z. mobilis, untreated 9%, FIG. 3): 14.2%; ethanol production (in words) (Z. mobilis cells; AI-2-treated vs untreated Z. mobilis cells): significant increase in ethanol production; increase in ethanol production (Z. mobilis cells; AI-2-treated vs untreated Z. mobilis, average of two experiments, chromate assay, colour change at 600 nm): 54%

Source: patent publication US8163526B2, “Ethanol production” (The University of Durham, priority 2006, dated 2012)
